From ChEMBL document CHEMBL1144739, “[6]-gingerol induces Ca2+ mobilization in Madin-Darby canine kidney cells” (2008)
Calls of active or inactive are those of the source. The rule behind the calls is not given here.

Tests used:
[1] = system: MDCK; assay: Inhibition of drug-induced intracellular calcium level in dog MDCK cells at 20 uM in absence of extracellular calcium; assay type: functional, Canis lupus familiaris; parameters: scale not given: the % may be the effect or the level left
[2] = system: MDCK; assay: Increase in drug-induced intracellular calcium level in dog MDCK cells at 10 uM after 250 seconds; assay type: functional, Canis lupus familiaris
[3] = system: MDCK; assay: Increase in drug-induced intracellular calcium level in dog MDCK cells at 0.1 uM; assay type: functional, cell-based; details: Canis lupus familiaris
[4] = system: MDCK; assay: Inhibition of protein kinase C in dog MDCK cells assessed as change in intracellular calcium level in presence of GF109203 X; assay type: cell-based; details: Canis lupus familiaris
[5] = system: MDCK; assay: Inhibition of phospholipase C in dog MDCK cells assessed as change in basal intracellular calcium level in presence of U73122; assay type: cell-based; details: Canis lupus familiaris
[6] = system: MDCK; assay: Increase in drug-induced intracellular calcium level in dog MDCK cells in presence of extracellular calcium; assay type: functional, cell-based; details: Canis lupus familiaris
[7] = system: MDCK; assay: Activation of protein kinase C in dog MDCK cells assessed as change in intracellular calcium level in presence of phorbol myristate acetate; assay type: cell-based; details: Canis lupus familiaris
[8] = system: MDCK; assay: Elevation of drug-induced intracellular calcium level in MDCK cells at 1 uM; assay type: functional, Canis lupus familiaris

| Structure (SMILES) | Activity [1] [%] | Activity [2] [nM] | Activity [3] | Activity [4] | Activity [5] | Activity [6] | Activity [7] | Activity [8] [nM] |
| --- | --- | --- | --- | --- | --- | --- | --- | --- |
| CCCCC[C@H](O)CC(=O)CCc1ccc(O)c(OC)c1 [GINGEROL] | 78 | 295 | inactive | Active | inactive | Dose-dependent effect | Active |  |
| C/C=C(/C)C(=O)O[C@H]1C(C)=C2[C@H]([C@@H]1OC(=O)CCCCCCC)[C@@](C)(OC(C)=O)C[C@H](OC(=O)CCC)[C@@]1(O)[C@H]2OC(=O)[C@@]1(C)O [THAPSIGARGIN] |  |  |  |  |  |  |  | 216 |
